Assay results: patent EP2545914A1, “2-amino-2-oxoethyl trans-3-[5-(6-methoxy-naphtalen-1-yl)-1,3-dioxan-2-yl]propyl-carbamate for use in the treatment of persistent cancer pain” (SANOFI, priority 2011, dated 2013)
Read-outs that look alike come from different tables or passages of the source.

What was measured:
[1] = test system: mice inoculated with BO2 breast carcinoma cells; assay: Tactile allodynia (Dynamic Plantar Aesthesiometer) in a model of bone metastatic cancer pain induced by BO2 cells; type: in vivo, female BALB/cByJ Ico-nu/nu mice; conditions: for paw withdrawal thresholds to non-noxious stimulations versus vehicle-treated animals: p<0.0001; for Reversal of allodynia (%): T2h; for Delta values (Delta PWT): T2h minus T0
Description: The model of cancer pain MDA-MB-231 breast cancer cells cause the development of highly vascularized skeletal lesions in animals. Here, we chose to perform a model of bone metastasis induced by BO2 cells, a sub-clone of MDA-MB-231 cancer cells expressing the bioluminescent jellyfish protein (green fluorescent protein). BO2 cells were inoculated into the tail of nude mice. […] In our study, BO2 invasion of the hind paws was evaluated by combining both fluorescence imaging and X-Ray radiology with evaluation of allodynic-like behavior in the tumor-bearing hind paws. The aim of the study was to assess the anti-allodynic activity of Compound A in a model of bone metastatic cancer pain in mice, at the time when allodynia-like symptoms are fully developed.
Non-fasted female BALB/cByJ Ico-nu/nu mice (aged 4 weeks at the beginning of the experimental phase, Charles River Laboratories, L'Arbresle, France) were used for this study. One week before starting the experiment and to enable full acclimatization, mice were caged in groups of 10 animals per cage. They were housed in macrolon type III cages with filter hoods in a sterile room in which the air was continuously filtered to avoid any contamination. The sterility of the room was checked once a month and the cages were sterilized at 121°C for 30 minutes before use and changed twice a week. Room temperature was maintained at 22°C, and relative humidity at 60% ±10%. The animals were kept under a natural daylight cycle. The animals were fed with RO3 irradiated at 10 kGy, purchased from UAR (91360 Epinay sur Orge, France), and water sterilized at 121°C for 30 minutes. Water consumption was visually monitored daily and the bottles were changed twice a week. Food and water were given ad libitum. The animal bedding was produced by UAR and sterilized at 121°C for 30 minutes and renewed twice a week. One day before the beginning of the study, mice were implanted in the back with an electronic chip for identification purposes. The day of BO2 breast carcinoma inoculation into the tail vein, mice were placed in groups of 9 or 8 animals per cage. Tumor progression (fluorescence imaging +X-Ray radiology) associated with evoked pain behavior were measured at least once a week during the entire study (data available on request). This allowed us to ensure that only mice with tumor progression and pain-like behavior were selected to enter in the testing procedure.
Compound A as a base was prepared extemporaneously as follows: the compound was weighed and 0.5% of Tween 80 was added, followed by addition of 0.6% Methyl Cellulose. The resulting suspensions were maintained at room temperature under magnetic stirring until the administration. Compound A was administered via oral gavage in a volume of 10 mL/kg, once daily for 7 days. On the first day of treatment, Compound A was administered at 30 mg/kg. From day 2 to day 7, Compound A was administered at 10 mg/kg.
For the present study, 2 groups of 8 mice receiving the BO2 breast carcinoma cells and 1 group of 8 mice (control animals) receiving only the culture medium were used (Table 1.1). Table 1.1 - Design of the study
No animals were excluded for this study. However, one mouse died in one of the BO2-inoculated groups (mouse found dead in the cage on day 7), while no mice died in the control group (n = 8). No randomization was performed at the beginning of the experiment and mice were treated by cage. A seven day treatment with Compound A or vehicle was performed with evaluation of evoked pain at day 1, day 3 and day 7 post-treatment. As bone metastases were distributed in both hind-paws, we decided at the beginning of the study to arbitrarily measure pain-like behavior evoked by a stimulus in only one hind-paw (the right hind-paw). Pain-like behaviors before and after treatment with vehicle or Compound A were evaluated during 3 sessions (i.e. on day 1, day 3 and day 7). […]

[2] = test system: UDP-glucuronosyl transferase; type: in vitro ADME, human; conditions: for % Control (M6G formation) / % Control (M3G formation): Morphine 2mM, protein 0.5 mg/mL, 30 min
Description: Incubations were conducted in 2-mL polypropylene centrifuge tubes. Incubation mixtures containing HLM suspension and alamethicin (25 µg/mL) in 0.1 M potassium phosphate buffer (pH 7.4), were placed on wet ice for 5 min. […] Reactions were initiated by the addition of 50 mM UDPGA spiking solution. […] Samples were incubated aerobically in a water bath at 37 °C for the required amount of time and reactions terminated by the addition of 400 µL of the appropriate quench solution. The 2-mL centrifuge tubes were vortex mixed and stored in a -20 °C freezer for ca. 20 min prior to centrifugation at 13.3 x g, 4 °C for 10 min. Supernatants were analyzed by LC-MS/MS for morphine metabolites formation.
UGT-dependent activities were determined by monitoring the formation of enzyme specific metabolites from marker substrates. […] Incubation with selective inhibitors (positive control) was performed at a concentration above their established IC50 for the confirmation of enzyme activity and inhibitory effects.
Incubations were performed in 2-mL centrifuge tubes. Incubation mixtures containing HLM suspension and alamethicin (25 µg/mL) in 0.1 M potassium phosphate buffer (pH 7.4), were placed on wet ice for 5 min. […] Reactions were initiated by the addition of UDPGA. The final incubation mixture contained 0.5 mg/mL HLM, 2 mM MgCl2, 5 mM UDPGA, various concentration of Compound A or a selective inhibitor. Samples were incubated aerobically in a water bath at 37 °C for 30 min. The incubation systems were terminated by the addition of a 400-µL quenching solution. The 2-mL centrifuge tubes were vortex mixed and stored in a -20 °C freezer for approximately 20 min prior to centrifugation at 13.3 x g, 4 °C for 10 min. Supernatants were analyzed by LC-MS/MS.
Percent of Control = Cmet÷Ccontrol × 100% [formula] • Cmet: Concentration of the metabolite in the incubations in the presence of Compound A or selective inhibitor • Ccontrol: Concentration of the enzyme-specific metabolite in the incubations in the absence of Compound A and selective inhibitor • The IC50 for Compound A was estimated by non-linear regression analysis of individual sets of percent inhibition values using GraphPad Prism 5.

With `COc1ccc2c(cccc2[C@H]2CO[C@H](CCCNC(=O)OCC(N)=O)OC2)c1` [Compound A, 2-amino-2-oxoethyl trans-3-[5-(6-methoxy-naphtalen-1-yl)-1,3-dioxan-2-yl]propyl-carbamate] the “paw withdrawal thresholds to non-noxious stimulations versus vehicle-treated animals” value ([1]; 10 mg/kg PO once daily, day 3 and day 7) was “significantly higher”, the “Reversal of allodynia (%)” value ([1]; Day 3, 10 mg/kg PO) was 45.06 ±3.11% and the “Delta values (Delta PWT)” value ([1]; Day 3, 10 mg/kg PO) was 0.78 ±0.06. For the same compound, the “Reversal of allodynia (%)” value ([1]; Day 7, 10 mg/kg PO) was 41.87 ±4.01%, the “Delta values (Delta PWT)” value ([1]; Day 7, 10 mg/kg PO) was 0.79 ±0.08 and the “evoked-pain induced by bone metastases in the hind-paw” value ([1]; acute oral dosing, allodynia fully installed) was “significantly reversed”. The “Reversal of allodynia (%)” value ([1]; day 1, 30 mg/kg PO, Mean ±SEM) was 68.74 ±8.99%, the “Delta values (Delta PWT)” value ([1]; day 1, 30 mg/kg PO, Mean ±SEM) was 1.04 ±0.13 and the “PWT values at T0” value ([1]; day 1, T0 (baseline before administration), group dosed 30 mg/kg PO, Mean ±SEM) was 1.815 ±0.065 gram. For the same compound, the “PWT values at T0” value ([1]; day 7, T0 (before that day's administration), 10 mg/kg PO once daily, Mean ±SEM) was 1.728 ±0.050 gram, the “paw withdrawal thresholds to non-noxious stimulations versus vehicle-treated animals” value ([1]; first day, 30 mg/kg PO) was “significantly higher” and the “tolerance in analgesic effect” value ([1]; repeated (7 days) administration) was “did not induce tolerance”. The “IC50 (M3G and M6G formation)” value ([2]; 2 mM morphine, Compound A 0.5 to 250 µM, HLM) was “could not be estimated”, the “% Control (M6G formation)” value ([2]; Compound A 0.5 µM) was 96.9% and the “% Control (M6G formation)” value ([2]; Compound A 1.0 µM) was 94.4%. The “% Control (M6G formation)” value ([2]; Compound A 5.0 µM) was 102.4%, the “% Control (M6G formation)” value ([2]; Compound A 10 µM) was 110.4% and the “% Control (M6G formation)” value ([2]; Compound A 25 µM) was 105.8%. The “% Control (M6G formation)” value ([2]; Compound A 50 µM) was 108.3%, the “% Control (M6G formation)” value ([2]; Compound A 100 µM) was 97.4% and the “% Control (M6G formation)” value ([2]; Compound A 250 µM) was 96.5%. For the same compound, the “% Control (M3G formation)” value ([2]; Compound A 0.5 µm) was 97.7%, the “% Control (M3G formation)” value ([2]; Compound A 1.0 µm) was 96.2% and the “% Control (M3G formation)” value ([2]; Compound A 5.0 µm) was 106.0%. For the same compound, the “% Control (M3G formation)” value ([2]; Compound A 10 µm) was 107.9%, the “% Control (M3G formation)” value ([2]; Compound A 25 µm) was 108.3% and the “% Control (M3G formation)” value ([2]; Compound A 50 µm) was 105.7%. For the same compound, the “% Control (M3G formation)” value ([2]; Compound A 100 µm) was 92.7%, the “% Control (M3G formation)” value ([2]; Compound A 250 µm) was 94.2% and the “drug interaction with morphine” value ([2]; according to in vitro results) was “no significant drug interaction”. The “inhibition of morphine metabolism” value ([2]; human liver microsomes, M3G and M6G formation) was “no inhibition”.

In the case of `CC(=O)N1CCN(c2ccc(OCC3COC(Cn4ccnc4)(c4ccc(Cl)cc4Cl)O3)cc2)CC1` (centres unmarked) [ketoconazole, reference compound], the “inhibition of M6G activity” value ([2]; positive control, same conditions (2 mM morphine, HLM 0.5 mg/mL, 30 min)) was ≥ 98.5%.
